The values that follow come from US9790180B2, “Piperidine derivatives as HDAC1/2 inhibitors” (Acetylon Pharmaceuticals, Inc., priority 2014, dated 2017).

Converted amounts (≈) assume the structure as drawn. Bounds are passed on as bounds.

One data set concerns the target hERG channel (Homo sapiens (Human), UniProt Q12809). Put plainly: hERG assay (QPatch, CHO cell line expressing hERG channels). Format: cell-based. How it is done: For hERG assays, a CHO cell line stably transfected with hERG cDNA and expressing hERG channels were seeded into a QPatch plate (Sophion) at a density of 3-8×10^6 cells/ml. The cells were voltage clamped at a holding potential of −80 mV. The hERG current was activated by depolarizing at +20 mV for 5 sec, after which the current was taken back to −50 mV for 5 sec to remove the inactivation and observe the deactivating tail current. The maximum amount of tail current size was used to determine hERG current amplitude. Six doses (30, 10, 3, 1, 0.3 and 0.1 μM) of Compound 003 were chosen to obtain fitting curves and IC50. Data were analyzed using Assay Software provided by Sophion and Graphpad Prism.

The next data set is described as follows: Microsome stability. Format: in vitro ADME.
The target in another data set is HDAC3 (Homo sapiens (Human), UniProt O15379). Put plainly: HDAC enzyme assay, HDAC3. Format: biochemical. Conditions: 24 hours pre-incubation with enzyme; read-out: IC50 (nM) HDAC3. The protocol:
(§1) Compounds for testing were diluted in DMSO to 50 fold the final concentration and a ten point three fold dilution series was made. The compounds were diluted in assay buffer (50 mM HEPES, pH 7.4, 100 mM KCl, 0.001% Tween-20, 0.05% BSA, 20 μM tris(2-carboxyethyl)phosphine) to 6 fold their final concentration. The HDAC enzymes (purchased from BPS Biosciences) were diluted to 1.5 fold their final concentration in assay buffer and pre-incubated with the compounds for 24 hours prior to addition of the substrate.
(§2) The substrate tripeptide substrate 3 (synthesized in house) for each enzyme was equal to the Km as determined by a substrate titration curve. The substrates were diluted in assay buffer at 6× their final concentration with 0.3 μM sequencing grade trypsin (Sigma). The substrate/trypsin mix was added to the enzyme/compound mix, the plate was shaken for 60 seconds and placed into a Spectramax M5 microtiter plate reader. The development of fluorescence was monitored for 30 min and the linear rate of the reaction was calculated. The IC50 was determined using Graph Pad Prism by a four parameter curve fit. The IC50 values obtained for the compounds of this invention are found in Table 1. Examples of the curves are found in FIGS. 1 and 4.

Data set [1] deals with bacterial tester strains TA98, TA100, TA1535 and TA97a and E. coli tester strain WP2 uvrA. The data set can be described thus: Ames genotoxicity (bacterial reverse mutation). How it is done: For genotoxicity, bacterial tester strains TA98, TA100, TA1535 and TA97a as described by Ames et al. (1975) and the E. coli tester strain WP2 uvrA as described by Green and Muriel (1976) were incubated with Compound 003 at 250, 75, 25, 7.5, 2.5, 0.75, 0.25, and 0.075 μg/well in 24 well plates either with or without liver homogenate (S9) purchased commercially (MolTox; Boone, N.C.) prepared from male Sprague Dawley rats that have been injected intraperitonealy with Aroclor 1254 (200 mg/mL in corn oil), at a dose of 500 mg/kg, 5 days before sacrifice. Mutagenicity is evaluated by counting the number of colonies that form on non-permissive media.

The nature of another data set: Solubility. Format: physicochemical.
The subject of data set [2] is fetal β-like globin (HbG, γ). The data set can be described thus: Fetal globin induction assay in CD34+ cells isolated from human bone marrow. Conditions: lowest concentration to achieve a 2 fold increase in fetal globin gene expression over baseline. Format: cell-based. How it is done:
CD34+ cells isolated from human bone marrow were cultured in vitro using a method described by Bradner J E (Proc Natl Acad Sci USA. 2010 Jul. 13; 107(28):12617-22), which consists of a 7 day expansion phase in media that supports differentiation of cells towards the erythroid lineage followed by a differentiation phase for 3 days where erythroid cell development continues. At the end of the differentiation period these cells are primarily late erythroblasts. mRNA levels were determined by quantitative real time PCR using primer/probe sets designed to adult major β-globin (β), adult minor β-globin (δ), fetal β-like globin (HbG, γ), and embryonic β-like globin (ε). Protein levels were determined by flow cytometry using fluorescent antibodies against fetal hemoglobin (HbF) or adult hemoglobin (HbA).
In the experiment shown in FIG. 3, cells were differentiated in the presence of vehicle (DMSO) 0.3, 1 and 3 μM of Compound A, and of 0.3, 1, and 3 μM of Compound 003. In the experiment shown in FIG. 6, cells were differentiated in the presence of vehicle (DMSO) 0.3, 1 and 3 μM of Compound A, and of 0.3, 1, and 3 μM of Compound 005. Globin mRNA levels were determined at day 3 of differentiation.

In data set [3] the test system is CYP1A2, CYP2C9, CYP2C19, CYP3A4, CYP2D6. The data set can be described thus: Cyp inhibition in human liver microsomes. Format: in vitro ADME. How it is done:
For Cyp inhibition, human live microsomes from BD Gentest were incubated with Compound 003 (10, 3.33, 1.11, 0.37, 0.12, 0.04, 0.01 μM) and substrate (CYP1A2: Phenacetin at 30 μM; CYP2C9: Diclofenac at 10 μM; CYP2C19: S-Mephenytoin at 35 μM; CYP3A4: Midazolam at 5 μM and Testosterone at 80 μM; CYP2D6: Bufuralol at 10 μM) for the following incubation times: CYP1A2, 2C9, 2D6: 10 minutes, 37° C.; CYP2C19: 45 minutes, 37° C.; CYP3A4: 5 minutes, 37° C. Substrate conversion was measured by liquid chromatography/mass spectrometry/mass spectrometry (LC/MS/MS). Inhibition was calculated by curve fitting in Graph Pad Prism.

In another data set the target is HDAC2 (Homo sapiens (Human), UniProt Q92769). Put plainly: HDAC enzyme assay, HDAC2. Format: biochemical. Conditions: 24 hours pre-incubation with enzyme; read-out: IC50 (nM) HDAC2. The protocol:
as §1, §2

The next data set deals with HDAC1 (Homo sapiens (Human), UniProt Q13547). Put plainly: HDAC enzyme assay, HDAC1. Format: biochemical. Conditions: 24 hours pre-incubation with enzyme; read-out: IC50 (nM) HDAC1. How it is done:
as §1, §2

The nature of data set [4]: Rat cassette pharmacokinetics. Format: in vivo. Conditions: male, SD, plasma. The protocol: Male SD rats were fasted overnight. Compounds of the invention were dissolved in dimethyl acetamide at 10 times the final concentration, then Solutol HS 15 (BASF) was added to a final concentration of 10%. Finally 80% saline was added and vortexed to achieve a clear solution. For the IV dosing three animals were injected via the foot dorsal vein with 1 mg/kg compound. For the PO dosing 5 mg/kg of compound was delivered by oral gavage. Blood was collected via the tail vein into K2EDTA tubes at 5 minutes, 15 minutes, 30 minutes, 1 hour, 2 hours, 4 hours, 8 hours and 24 hours after dosing. The blood was centrifuged at 2000 g for 5 minutes at 4° C. to obtain plasma. The plasma was extracted with acetonitrile and the level of compound was analyzed by LC/MS/MS. The level of compound in plasma was calculated from a standard curve in rat plasma. The IV clearance and area under the curve were calculated using WinNonLin software. The dose adjusted area under the curve for the IV and oral dosing were used to calculate the oral bioavailability.

The test system of data set [5] is human peripheral blood lymphocytes (HPBL). Put plainly: Micronucleus formation assay. Format: cell-based. How it is done:
Genotoxicity was further evaluated by micronucleus formation assay in human peripheral blood lymphocytes (HPBL). HPBL were obtained from healthy donors and exposed to Compound 003 at […] for 4 hours with or without S9 activation. The cells were washed with PBS and incubated in complete medium with 6 μg/ml cytocholasin B for 24 hours. The cells were then lysed, fixed, and mounted on microscope slides. The number of mononucleated, binucleated, and micronucleated cells was counted under blinded conditions.

[6] abbreviates: rat cassette dosing, 5 mg/kg PO.

Sequence of hERG channel (Q12809 whole entry): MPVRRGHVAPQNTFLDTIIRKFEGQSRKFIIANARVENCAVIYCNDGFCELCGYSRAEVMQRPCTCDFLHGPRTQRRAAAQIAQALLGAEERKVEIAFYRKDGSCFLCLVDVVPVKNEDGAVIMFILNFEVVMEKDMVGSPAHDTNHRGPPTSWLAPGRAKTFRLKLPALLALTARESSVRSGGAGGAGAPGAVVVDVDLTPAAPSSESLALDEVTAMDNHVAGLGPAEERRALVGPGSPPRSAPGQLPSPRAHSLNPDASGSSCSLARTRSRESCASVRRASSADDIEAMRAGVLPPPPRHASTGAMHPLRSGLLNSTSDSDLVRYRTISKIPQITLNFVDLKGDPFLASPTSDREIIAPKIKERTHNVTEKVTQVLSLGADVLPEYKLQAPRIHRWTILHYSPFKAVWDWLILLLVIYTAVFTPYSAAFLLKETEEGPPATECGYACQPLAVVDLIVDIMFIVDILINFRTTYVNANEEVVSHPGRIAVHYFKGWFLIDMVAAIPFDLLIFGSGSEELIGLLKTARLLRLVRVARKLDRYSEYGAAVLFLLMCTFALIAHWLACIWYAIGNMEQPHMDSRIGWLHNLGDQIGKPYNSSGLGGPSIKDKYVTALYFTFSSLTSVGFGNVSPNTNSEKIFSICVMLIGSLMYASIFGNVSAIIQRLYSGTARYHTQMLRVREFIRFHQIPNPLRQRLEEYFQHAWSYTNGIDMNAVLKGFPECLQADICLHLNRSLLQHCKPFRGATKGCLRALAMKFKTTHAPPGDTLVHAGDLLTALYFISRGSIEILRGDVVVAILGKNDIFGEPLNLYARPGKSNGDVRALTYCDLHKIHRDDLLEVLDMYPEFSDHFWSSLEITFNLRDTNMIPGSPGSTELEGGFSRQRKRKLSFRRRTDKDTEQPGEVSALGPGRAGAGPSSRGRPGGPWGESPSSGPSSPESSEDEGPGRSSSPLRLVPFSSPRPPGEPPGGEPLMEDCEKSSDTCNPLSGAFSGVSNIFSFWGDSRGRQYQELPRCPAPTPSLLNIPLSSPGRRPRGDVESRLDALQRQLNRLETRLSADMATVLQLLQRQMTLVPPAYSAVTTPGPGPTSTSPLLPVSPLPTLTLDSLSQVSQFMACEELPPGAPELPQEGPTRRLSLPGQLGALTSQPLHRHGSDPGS
Sequence of HDAC2 (Q92769 whole entry): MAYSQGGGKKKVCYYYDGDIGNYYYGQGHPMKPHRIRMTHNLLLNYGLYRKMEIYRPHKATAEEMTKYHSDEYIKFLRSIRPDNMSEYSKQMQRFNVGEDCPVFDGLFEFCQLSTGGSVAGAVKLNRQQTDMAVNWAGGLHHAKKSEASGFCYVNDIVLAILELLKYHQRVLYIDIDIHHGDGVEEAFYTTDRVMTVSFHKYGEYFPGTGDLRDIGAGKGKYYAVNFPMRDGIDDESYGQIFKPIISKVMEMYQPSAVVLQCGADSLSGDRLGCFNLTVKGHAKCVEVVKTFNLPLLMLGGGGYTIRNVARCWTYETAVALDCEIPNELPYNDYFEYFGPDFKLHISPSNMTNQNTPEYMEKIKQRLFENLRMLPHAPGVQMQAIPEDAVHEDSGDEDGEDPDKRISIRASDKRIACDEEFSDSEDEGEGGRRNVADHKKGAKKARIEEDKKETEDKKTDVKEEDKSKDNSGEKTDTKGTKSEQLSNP
Sequence of HDAC1 (Q13547 whole entry): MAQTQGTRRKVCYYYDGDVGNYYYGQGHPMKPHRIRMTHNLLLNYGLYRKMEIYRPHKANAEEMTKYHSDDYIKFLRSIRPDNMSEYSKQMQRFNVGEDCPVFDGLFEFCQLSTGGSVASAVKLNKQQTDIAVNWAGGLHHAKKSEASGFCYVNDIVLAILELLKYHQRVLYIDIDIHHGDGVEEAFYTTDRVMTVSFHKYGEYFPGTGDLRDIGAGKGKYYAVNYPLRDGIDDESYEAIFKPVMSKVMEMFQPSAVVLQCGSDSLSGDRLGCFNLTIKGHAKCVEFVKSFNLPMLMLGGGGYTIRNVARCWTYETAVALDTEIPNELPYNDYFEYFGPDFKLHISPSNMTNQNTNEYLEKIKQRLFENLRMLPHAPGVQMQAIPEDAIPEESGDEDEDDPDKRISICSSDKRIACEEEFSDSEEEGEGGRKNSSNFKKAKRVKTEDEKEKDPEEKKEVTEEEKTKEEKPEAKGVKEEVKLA
Sequence of HDAC3 (O15379 whole entry): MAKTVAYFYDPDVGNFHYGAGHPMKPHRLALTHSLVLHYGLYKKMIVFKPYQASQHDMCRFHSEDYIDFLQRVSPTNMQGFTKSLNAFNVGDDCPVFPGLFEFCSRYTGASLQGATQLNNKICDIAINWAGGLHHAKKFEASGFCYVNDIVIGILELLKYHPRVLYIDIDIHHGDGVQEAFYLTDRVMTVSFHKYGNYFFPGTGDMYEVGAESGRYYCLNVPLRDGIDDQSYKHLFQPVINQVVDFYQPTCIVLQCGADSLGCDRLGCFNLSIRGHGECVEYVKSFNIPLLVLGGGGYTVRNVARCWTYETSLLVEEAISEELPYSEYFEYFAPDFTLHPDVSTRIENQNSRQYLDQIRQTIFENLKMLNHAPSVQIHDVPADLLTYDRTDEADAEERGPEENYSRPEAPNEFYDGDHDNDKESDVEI
Sequence of HDAC3 (Q9Y618 395-489 partner): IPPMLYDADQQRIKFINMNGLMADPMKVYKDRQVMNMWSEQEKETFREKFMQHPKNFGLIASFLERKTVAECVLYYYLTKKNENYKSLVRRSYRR

With `Nc1ccc(-c2cccs2)cc1NC(=O)c1cnc(NC2CCN(C(=O)N3CCOCC3)CC2)nc1` [Compound 003], at hERG channel (In vitro tox), the hERG is >30 µM. Moreover, the “inhibition of the activity of the hERG channel” value against hERG channel (at the highest concentration of 30 μM) is reported as “did not inhibit”. For the same compound, in the data set “Microsome stability”, the Microsome stability came out at 4.7 min. The IC50 was 204 nM at HDAC3, 56 nM at HDAC2 and 15 nM at HDAC1. Besides, in data set [1] (In vitro tox), the Ames entry is listed as “Neg”. Also, the “number of revertant colonies” value in [1] (any strain, with or without S9 activation) is recorded as “did not increase”. Moreover, the concentration in solution in “Solubility” (solubility) was 54 µM (≈ 27.4 µg/mL). The “Cell based assay potency” value in [2] worked out at 3 µM. Besides, the Cyp in data set [3] (In vitro tox, human liver microsomes) was >10 µM. In data set [3] (up to 10 μM), the “inhibition of activity of any Cyp” value is recorded as “did not inhibit”. The bioavailability in data set [4] (5 mg/kg, rat, oral AUC to IV AUC, dose adjusted) turned out to be 118%. This compound gave an AUC in [4] (setting [6]) of 59900 ng·h/mL. In data set [4] (setting [6]), this compound returned a Cmax of 2320 ng/mL. Also, in data set [4] (rat cassette dosing, 5 mg/kg PO, read-out: PO T½ (converted)), the half-life is 1020 min. Further, the CL renal in data set [4] (rat cassette dosing, IV 1 mg/kg, read-out: IV Clr. (converted)) is 2 mL/min/kg. In [5] (In vitro tox), the MN result is given as “Neg”. In addition, in data set [5] (any concentration, 4 hours with or without S9 activation), the “number of micronucleated cells” value is recorded as “did not increase”.
